Data as given in patent US20230126447A1, “OCULAR DRUG DEPOT FOR COMPLEMENT-MEDIATED DISORDERS” (priority 2020, published 2023).

Test: Ocular tissue and plasma pharmacokinetics, 50 mg/kg BID oral, Dutch Belted rabbits (Example 4/5)
Format: in vivo
Conditions: DB rabbit; for Mean Choroid-RPE concentration / Mean Iris-Ciliary Body concentration / Mean plasma concentration / Mean retina concentration / Optic Nerve concentration / Vitreous concentration: 50 mg/kg BID oral; for Mean Choroid-RPE concentration / Mean Iris-Ciliary Body concentration / Mean plasma concentration / Mean retina concentration: 50 mg/kg
Protocol: Study design, including group designation and dose levels, are outlined in Table 15. […] Two Dutch Belted rabbits received vehicle only oral gavage doses for tolerability assessment. […] The dose volume was 5 mL/kg/dose for all groups. Safety was assessed with toxicological and ophthalmic examinations, including slit lamp biomicroscopy, indirect ophthalmoscopy, rebound tonometry, and ultrasonic corneal pachymetry.
For the pharmacokinetic determination, a single blood sample was taken from each rabbit from Groups 1 and 4 at one hour post-dose on Day 15, Group 2 at one hour post-dose on Day 8, and Group 3 at pre-dose, 1, 6, 24, 96, 168, and 240 hours post-dose on Day 15, with the eyes collected at the same time as blood sampling. Plasma, vitreous humor (VH), retina, choroid-retina pigmented epithelium (Choroid-RPE), optic nerve (ON), and iris-ciliary body (I-CB) were analyzed by LC-MS/MS to quantify test article concentrations. The lower limit of quantitation (LLOQ) in plasma and vitreous humor was 1.0 ng/mL. The LLOQ was 6.0 ng/g in retina, choroid-RPE, and I-CB and the optic nerve LLOQ was 15 ng/g, assuming tissue density of 1 g/mL where relevant. […]

[1] = Choroid-RPE, 50 mg/kg BID, Day 15
[2] = Iris-Ciliary Body, 50 mg/kg BID, Day 15
[3] = Optic Nerve, 50 mg/kg BID, Day 15
[4] = Vitreous Humor, 50 mg/kg BID, Day 15
[5] = male, Dutch Belted, po, Choroid-RPE, 50 mg/kg BID, Day 15
[6] = male, Dutch Belted, po, Iris-Ciliary Body, 50 mg/kg BID, Day 15

In the case of CC(=O)c1nn(CC(=O)N2C[C@H](F)C[C@H]2C(=O)Nc2cccc(Br)n2)c2ccc(-c3cnc(C)nc3)cc12 [Compound 1, (2S,4R)-1-(2-(3-Acetyl-5-(2-methylpyrimidin-5-yl)-1H-indazol-1-yl)acetyl)-N-(6-bromopyridin-2-yl)-4-fluoropyrrolidine-2-carboxamide], the AUC(0-t) [1] is reported as 274000 ng·h/g, the “AUC(0-∞)” value [1] is reported as 292000 ng·h/g and the Tlast [1] is reported as 240 h. For the same compound, the “Optic nerve concentration after 24 hours post-dose (non-detectable)” value (50 mg/kg BID for 14 days) was under 1.0 ng/mL, the “Plasma concentration after 24 hours post-dose (non-detectable)” value (50 mg/kg BID for 14 days) was under 0.001 µg/mL and the “Vitreous humor concentration after 24 hours post-dose (non-detectable)” value (50 mg/kg BID for 14 days) was under 1.0 ng/mL. For the same compound, the “Mean Choroid-RPE concentration” value (Day 15, 0 h) was 3918 ± 950 ng/g, the “Mean Iris-Ciliary Body concentration” value (Day 15, 0 h) was 5076 ± 586 ng/g and the Mean plasma concentration (Day 15, 0 h) was 0.104 ± 0.068 µg/mL. The Mean retina concentration (Day 15, 0 h) was 159 ± 87.9 ng/g, the “Mean Choroid-RPE concentration” value (Day 15, 1 h) was 8025 ± 2350 ng/g and the “Mean Iris-Ciliary Body concentration” value (Day 15, 1 h) was 11475 ± 2022 ng/g. For the same compound, the Mean plasma concentration (Day 15, 1 h) was 2.895 ± 0.884 µg/mL, the Mean retina concentration (Day 15, 1 h) was 2122 ± 376 ng/g and the “Mean Choroid-RPE concentration” value (Day 15, 6 h) was 4373 ± 1586 ng/g. The “Mean Iris-Ciliary Body concentration” value (Day 15, 6 h) was 8822 ± 2621 ng/g, the Mean plasma concentration (Day 15, 6 h) was 0.321 ± 0.07 µg/mL and the Mean retina concentration (Day 15, 6 h) was 725 ± 117 ng/g. For the same compound, the “Mean Choroid-RPE concentration” value (Day 15, 24 h) was 2097 ± 273 ng/g, the “Mean Iris-Ciliary Body concentration” value (Day 15, 24 h) was 5556 ± 2128 ng/g and the Mean plasma concentration (Day 15, 24 h) was 0.0399 ± 0.00445 µg/mL. For the same compound, the Mean retina concentration (Day 15, 24 h) was 265 ± 113 ng/g, the “Optic Nerve concentration” value (Day 15, 96 h) was “BLQ^b” and the Vitreous concentration (Day 15, 96 h) was “BLQ^c”. The “Mean Choroid-RPE concentration” value (Day 15, 96 h) was 873 ± 392 ng/g, the “Mean Iris-Ciliary Body concentration” value (Day 15, 96 h) was 2837 ± 1136 ng/g and the Mean plasma concentration (Day 15, 96 h) was “BLQ^a and BLQ”. The Mean retina concentration (Day 15, 96 h) was 32.3 ± 24.2 ng/g, the “Optic Nerve concentration” value (Day 15, 168 h) was “BLQ^b” and the Vitreous concentration (Day 15, 168 h) was “BLQ^c”. The “Mean Choroid-RPE concentration” value (Day 15, 168 h) was 645 ± 67.2 ng/g, the “Mean Iris-Ciliary Body concentration” value (Day 15, 168 h) was 2292 ± 445 ng/g and the Mean plasma concentration (Day 15, 168 h) was “BLQ^a and BLQ”. For the same compound, the Mean retina concentration (Day 15, 168 h) was 54.9 ± 7.28 ng/g, the “Optic Nerve concentration” value (Day 15, 240 h) was “BLQ^b” and the Vitreous concentration (Day 15, 240 h) was “BLQ^c”. For the same compound, the “Mean Choroid-RPE concentration” value (Day 15, 240 h) was 195 ± 41.5 ng/g, the “Mean Iris-Ciliary Body concentration” value (Day 15, 240 h) was 1624 ± 1275 ng/g and the Mean plasma concentration (Day 15, 240 h) was “BLQ^a and BLQ”. For the same compound, the Mean retina concentration (Day 15, 240 h) was 39.4 ± 20.1 ng/g, the AUC(0-t) [2] was 801000 ng·h/g and the “AUC(0-∞)” value [2] was 1220000 ng·h/g. For the same compound, the Tlast [2] was 240 h, the AUC(0-t) [3] was 4880 ng·h/g and the “AUC(0-∞)” value [3] was 5180 ng·h/g. For the same compound, the AUC(0-t) (Retina, 50 mg/kg BID, Day 15) was 30300 ng·h/g, the “AUC(0-∞)” value (Retina, 50 mg/kg BID, Day 15) was 35700 ng·h/g and the Tlast (Retina, 50 mg/kg BID, Day 15) was 240 h. The AUC(0-t) [4] was 419 ng·h/g, the “AUC(0-∞)” value [4] was 442 ng·h/g and the Tlast [4] was 24 h. For the same compound, the Cmax [5] was 8020 ng/g, the MRT last [5] was 68.6 h and the Tmax [5] was 1 h. For the same compound, the half-life [5] was 66.4 h, the Cmax [6] was 11500 ng/g and the MRT inf [6] was 138 h. For the same compound, the MRT last [6] was 88 h, the Tmax [6] was 1 h and the half-life [6] was 178 h. The Cmax (male, Dutch Belted, po, Optic Nerve, 50 mg/kg BID, Day 15) was 1550 ng/g.
